{"source": "patent US8637073B2", "about": "(priority 2003, dated 2014)", "origin": "cited, not measured here", "details": "maintenance of opioid-dependent pregnant women; Eder et al. 2001"}
{"compound": "CCC(=O)C(CC(C)N(C)C)(c1ccccc1)c1ccccc1", "note": "(stereo not shown) [methadone]", "values": [{"measurement": "neonates in which neonatal abstinence syndrome (NAS) is observed", "value": "60-80%"}]}
